Measurements from patent US7786141B2 (Vertex Pharmaceuticals Incorporated, priority 2004, dated 2010).

Tests used:
M4 muscarinic receptor = target: T1, M4 muscarinic receptor (Homo sapiens, UniProt P08173); test: Functional mobilization of intracellular calcium (FLIPR) in M4-CHO cells; format: cell-based; conditions: M4 receptor, calcium mobilization; for Emax: read-out: M4 Efficacy
T1 construct: expressed in transfected cells; host or cells: CHO (M4-CHO)
T1 sequence (P08173 1-479): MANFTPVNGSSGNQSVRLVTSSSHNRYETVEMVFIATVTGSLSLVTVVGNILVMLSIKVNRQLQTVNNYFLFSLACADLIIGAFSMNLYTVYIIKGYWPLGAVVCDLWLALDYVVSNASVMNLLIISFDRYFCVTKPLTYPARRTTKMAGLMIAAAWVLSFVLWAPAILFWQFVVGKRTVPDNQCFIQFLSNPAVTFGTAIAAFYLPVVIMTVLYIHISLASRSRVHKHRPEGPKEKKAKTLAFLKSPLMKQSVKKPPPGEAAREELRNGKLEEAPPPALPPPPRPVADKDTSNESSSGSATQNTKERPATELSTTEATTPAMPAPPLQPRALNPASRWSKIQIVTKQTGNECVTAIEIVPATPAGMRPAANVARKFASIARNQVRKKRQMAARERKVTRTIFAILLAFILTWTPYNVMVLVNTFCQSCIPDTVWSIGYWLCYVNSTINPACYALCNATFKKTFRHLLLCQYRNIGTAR
Method in brief: (§1)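 Measured via Fluo-3 fluorescence on a FLIPR, CHO cells with either muscarinic subtype received compound in 0.5% DMSO. Antagonism was assessed after 15 min pre-incubation followed by carbachol at each subtype's EC80; agonism from compound addition alone.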

M1 muscarinic receptor = target: T2, M1 muscarinic receptor (Homo sapiens, UniProt P11229); test: Functional mobilization of intracellular calcium (FLIPR) in M1-CHO cells; format: cell-based; conditions: M1 receptor, calcium mobilization; for Emax: read-out: M1 Efficacy
T2 construct: expressed in transfected cells; host or cells: CHO (M1-CHO)
T2 sequence (P11229 1-460): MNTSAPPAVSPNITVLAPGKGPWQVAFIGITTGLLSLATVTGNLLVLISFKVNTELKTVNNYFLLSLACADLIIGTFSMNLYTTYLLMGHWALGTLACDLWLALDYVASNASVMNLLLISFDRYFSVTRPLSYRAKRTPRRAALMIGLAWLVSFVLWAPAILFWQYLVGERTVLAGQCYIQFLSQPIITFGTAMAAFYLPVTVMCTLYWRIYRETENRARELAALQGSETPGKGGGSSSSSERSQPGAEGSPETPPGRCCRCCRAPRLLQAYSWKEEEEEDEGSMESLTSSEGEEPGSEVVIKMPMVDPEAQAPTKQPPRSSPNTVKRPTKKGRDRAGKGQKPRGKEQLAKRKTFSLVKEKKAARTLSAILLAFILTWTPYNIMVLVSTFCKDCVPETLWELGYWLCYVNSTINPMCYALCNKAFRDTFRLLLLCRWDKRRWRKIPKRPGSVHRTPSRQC
Method in brief: as §1

Compound | M4 Activity (M4 muscarinic receptor) | Emax (M4 muscarinic receptor) | M1 Activity (M1 muscarinic receptor) | Emax (M1 muscarinic receptor) | M4 Efficacy (M4 muscarinic receptor) | M1 Efficacy (M1 muscarinic receptor)
CC(=O)N1CC2(CCN(CC3CCCOC3)CC2)c2cc(F)ccc21 (stereo not drawn) [compound 75] | xx (activity was measured to be between 0.1 μM and 1.0 μM) | 65 to 85% | xxx (activity was measured to be less than 0.1 μM) | < 65% |  | 
COCCOC(=O)N1C2CCC1CC(N1CCC3(CC1)CN(C(C)=O)c1ccc(F)cc13)C2 (stereo not drawn) [compound 76] | xx (activity was measured to be between 0.1 μM and 1.0 μM) | 65 to 85% | xxx (activity was measured to be less than 0.1 μM) | 65 to 85% |  | 
CCOC(=O)N1CCC(N2CCC3(CC2)CN(C(=O)c2ccc(F)cc2)c2ccc(F)cc23)CC1 [compound 77] | xx (activity was measured to be between 0.1 μM and 1.0 μM) | < 65% | xxx (activity was measured to be less than 0.1 μM) | 65 to 85% |  | 
CCOC(=O)N1CCC(N2CCC3(CC2)CN(C(C)=O)c2ccc(-c4ccccc4C)cc23)CC1 [compound 78] | xx (activity was measured to be between 0.1 μM and 1.0 μM) | < 65% | xxx (activity was measured to be less than 0.1 μM) | 65 to 85% |  | 
CCCOC(=O)N1CCC(N2CCC3(CC2)CN(C(C)=O)c2ccc(F)cc23)CC1 [compound 79] | x (activity was measured to be greater than 1.0 μM) | < 65% | xx (activity was measured to be between 0.1 μM and 1.0 μM) | < 65% |  | 
COCCOC(=O)N1CC2(CCN(C3CC4CCC(C3)N4C(=O)O[C@H]3CCOC3)CC2)c2cc(F)ccc21 (stereo partly drawn) [compound 80] | xx (activity was measured to be between 0.1 μM and 1.0 μM) | < 65% | xx (activity was measured to be between 0.1 μM and 1.0 μM) | < 65% |  | 
C#CCOC(=O)N1CCC(N2CCC3(CC2)CN(C(C)=O)c2ccc(C)cc23)CC1 [compound 81] | x (activity was measured to be greater than 1.0 μM) | < 65% | xx (activity was measured to be between 0.1 μM and 1.0 μM) | < 65% |  | 
CC(=O)N1CC2(CCN(CC3CCN(C(=O)O[C@@H]4CCOC4)CC3)CC2)c2cc(F)ccc21 [compound 82] | xx (activity was measured to be between 0.1 μM and 1.0 μM) |  | xxx (activity was measured to be less than 0.1 μM) |  | xx (efficacy was calculated to be between 85% and 65%) | xx (efficacy was calculated to be between 85% and 65%)
CCOC(=O)N1CCC(N2CCC3(CC2)CN(C(C)=O)c2ccc(-c4cccc(F)c4)cc23)CC1 [compound 84] | xx (activity was measured to be between 0.1 μM and 1.0 μM) | 65 to 85% | xxx (activity was measured to be less than 0.1 μM) | 65 to 85% |  | 
Clc1ccc2c(c1)C1(CCN(C3CC4CCC(C4)C3)CC1)CN2 (stereo not drawn) [compound 85] | xx (activity was measured to be between 0.1 μM and 1.0 μM) | 65 to 85% | xxx (activity was measured to be less than 0.1 μM) | 65 to 85% |  | 
CCON=C1CCC(N2CCC3(CC2)CN(C(C)=O)c2ccc(F)cc23)CC1 (stereo not drawn) [compound 86] | x (activity was measured to be greater than 1.0 μM) | < 65% | xxx (activity was measured to be less than 0.1 μM) | 65 to 85% |  | 
O=C(C1CC1)N1CC2(CCN(C3CC4CCC(C3)N4C(=O)O[C@@H]3CCOC3)CC2)c2cc(F)ccc21 (stereo partly drawn) [compound 87] | x (activity was measured to be greater than 1.0 μM) | < 65% | xxx (activity was measured to be less than 0.1 μM) | 65 to 85% |  | 
CCOC(=O)N1C2CCC1CC(N1CCC3(CC1)CN(C(=O)c1ccno1)c1ccc(F)cc13)C2 (stereo not drawn) [compound 88] | xx (activity was measured to be between 0.1 μM and 1.0 μM) | < 65% | xxx (activity was measured to be less than 0.1 μM) | 65 to 85% |  | 
CCOC(=O)N1C2CCC1CC(N1CCC3(CC1)CN(C(=O)OCCOC)c1ccc(F)cc13)C2 (stereo not drawn) [compound 90] | x (activity was measured to be greater than 1.0 μM) | < 65% | xx (activity was measured to be between 0.1 μM and 1.0 μM) | 65 to 85% |  | 
CCCOC(=O)N1CCC(N2CCC3(CC2)CN(C(=O)N(C)C)c2ccc(F)cc23)CC1 [compound 91] | xx (activity was measured to be between 0.1 μM and 1.0 μM) | < 65% | xxx (activity was measured to be less than 0.1 μM) | 65 to 85% |  | 
CCOC(=O)N1CCC(N2CCC3(CC2)CN(C(C)=O)c2ccc(C)cc23)CC1 [compound 92] | xx (activity was measured to be between 0.1 μM and 1.0 μM) | < 65% | xxx (activity was measured to be less than 0.1 μM) | 65 to 85% |  | 
O=C(O[C@@H]1CCOC1)N1CC2(CCN(C3CC4CCC(C3)N4C(=O)O[C@H]3CCOC3)CC2)c2cc(F)ccc21 (stereo partly drawn) [compound 93] | xx (activity was measured to be between 0.1 μM and 1.0 μM) |  | xx (activity was measured to be between 0.1 μM and 1.0 μM) |  | x (efficacy was calculated to be less than 65%) | x (efficacy was calculated to be less than 65%)
CC(=O)N1CC2(CCN(C3CC4CCC(C3)N4C(=O)OC(C)C)CC2)c2cc(F)ccc21 (stereo not drawn) [compound 94] | xx (activity was measured to be between 0.1 μM and 1.0 μM) | < 65% | xxx (activity was measured to be less than 0.1 μM) | < 65% |  | 
COCCOC(=O)N1C2CCC1CC(N1CCC3(CCc4ccccc43)CC1)C2 (stereo not drawn) [compound 95] | xx (activity was measured to be between 0.1 μM and 1.0 μM) | < 65% | xxx (activity was measured to be less than 0.1 μM) | 65 to 85% |  | 
COC(=O)N1CC2(CCN(C3CC4CCC(C3)N4C(=O)O[C@H]3CCOC3)CC2)c2cc(F)ccc21 (stereo partly drawn) [compound 96] | x (activity was measured to be greater than 1.0 μM) | < 65% | xx (activity was measured to be between 0.1 μM and 1.0 μM) | 65 to 85% |  | 
COC(=O)N1CC2(CCN(C3CC4CCC(C3)N4C(=O)OC(C)C)CC2)c2cc(F)ccc21 (stereo not drawn) [compound 97] | x (activity was measured to be greater than 1.0 μM) | < 65% | xxx (activity was measured to be less than 0.1 μM) | 65 to 85% |  | 
CCCOC(=O)N1CCC(CN2CCC3(CC2)CN(C(C)=O)c2ccc(F)cc23)CC1 [compound 98] | xx (activity was measured to be between 0.1 μM and 1.0 μM) | < 65% | xxx (activity was measured to be less than 0.1 μM) | 65 to 85% |  | 
CCOC(=O)N1C2CCC1CC(N1CCC3(CC1)COc1ccc(Cl)cc13)C2 (stereo not drawn) [compound 99] | x (activity was measured to be greater than 1.0 μM) | < 65% | xxx (activity was measured to be less than 0.1 μM) | < 65% |  | 
COc1ccc(OC(=O)N2C3CCC2CC(N2CCC4(CC2)COc2ccc(F)cc24)C3)cc1 (stereo not drawn) [compound 100] | xx (activity was measured to be between 0.1 μM and 1.0 μM) | 65 to 85% | xxx (activity was measured to be less than 0.1 μM) | 65 to 85% |  | 
